In one test the test system is RAT RET/C634R cells. The test is classed as cell-based. The conditions noted are these: low serum, last day values, 95% CI in brackets, read-out: Growth inhibition IC50 dose: RAT RET/C634R. As to the method:
(§1) To compare cell growth, we performed unpaired Student’s t test using the Instat software program (Graphpad Software Inc). P values were two-sided, and differences were considered statistically significant at P <.02. IC50 doses were calculated through a curve fitting analysis from last day values using the PRISM software program (Graphpad Software Inc).

The next test relates to TT cells. The test can be described thus: Growth curves, TT medullary thyroid carcinoma cells (RET/C634W). The test is classed as cell-based. The note with it: Homo sapiens, 20% serum, 95% CI in brackets, read-out: Growth inhibition IC50 dose TT. As to the method:
TT human cell line was obtained in 2002 from ATCC and authenticated by RET genotyping; it was derived from a MTC and harbors a cysteine 634 to tryptophan (C634W) RET mutation. TT cells were grown in RPMI 1640 supplemented with 20% fetal calf serum (GIBCO). MZ-CRC-1 human cells were kindly provided in 2009 by Robert F. Gagel (MD Anderson, Houston, TX) and authenticated by RET genotyping. […] Nthy-ori 3–1, a human thyroid follicular epithelial cell line immortalized by the SV40 large T gene, was obtained from European Collection of Cell Cultures (ECACC) (Wiltshire, UK) in 2010.
as §1

A further test addresses T1, VEGFRII (Homo sapiens, UniProt P35968).
T1 construct: endogenous in cells; host or cells: TT human medullary thyroid carcinoma cells
The test can be described thus: Western blot of VEGFRII phosphorylation in TT cells. The test is classed as cell-based. The note with it: 2 hr, Western blotting. As to the method: Protein lysates were prepared according to standard procedures. Briefly, cells were lysed in a buffer containing 50 mM N-2-hydroxyethylpiperazine-N'-2-ethanesulfonic acid (HEPES; pH 7.5), 1% (vol/vol) Triton X-100, 150 mM NaCl, 5 mM EGTA, 50 mM NaF, 20 mM sodium pyrophosphate, 1 mM sodium vanadate, 2 mM phenylmethylsulphonyl fluoride (PMSF) and 1 μg/ml aprotinin. Lysates were clarified by centrifugation at 10,000 Xg for 15 min. […] Immune complexes were detected with the enhanced chemiluminescence kit (Amersham Pharmacia Biotech, Little Chalfort, UK). Signal intensity was analyzed at the Phosphorimager (Typhoon 8600, Amersham Pharmacia Biotech) interfaced with the ImageQuant software. Anti-phospho-SHC (#07206), that recognizes SHC proteins when phosphorylated on Y317 was from Merck Millipore (Darmstadt, Germany). Anti-MAPK (#4695) and anti-phospho-MAPK (#4370), specific for p44/42MAPK (ERK1/2) phosphorylated on Thr202/Tyr204, anti-VEGFRII (#2479) and anti-phospho-VEGFRII (#2478), that recognizes VEGF Receptor 2 when phosphorylated on Y1175, were from Cell Signaling (Beverly, MA).
VEGFRII inhibition is believed to contribute, based on its anti-angiogenic effect, to clinical activity of approved RET inhibitors such as vandetanib and cabozantinib.
The blots were normalized using anti-VEGFRII (αVEGFRII) antibody. (JPG) Click here for additional data file.
Background: Immunoblotting shows a protein as a band on a membrane.

The target in test [1] is T2, KinomeScan kinase panel (Homo sapiens, UniProt O15111).
T2 construct: purchased DiscoveRx (KinomeScan)
T2 sequence (O15111 1-745): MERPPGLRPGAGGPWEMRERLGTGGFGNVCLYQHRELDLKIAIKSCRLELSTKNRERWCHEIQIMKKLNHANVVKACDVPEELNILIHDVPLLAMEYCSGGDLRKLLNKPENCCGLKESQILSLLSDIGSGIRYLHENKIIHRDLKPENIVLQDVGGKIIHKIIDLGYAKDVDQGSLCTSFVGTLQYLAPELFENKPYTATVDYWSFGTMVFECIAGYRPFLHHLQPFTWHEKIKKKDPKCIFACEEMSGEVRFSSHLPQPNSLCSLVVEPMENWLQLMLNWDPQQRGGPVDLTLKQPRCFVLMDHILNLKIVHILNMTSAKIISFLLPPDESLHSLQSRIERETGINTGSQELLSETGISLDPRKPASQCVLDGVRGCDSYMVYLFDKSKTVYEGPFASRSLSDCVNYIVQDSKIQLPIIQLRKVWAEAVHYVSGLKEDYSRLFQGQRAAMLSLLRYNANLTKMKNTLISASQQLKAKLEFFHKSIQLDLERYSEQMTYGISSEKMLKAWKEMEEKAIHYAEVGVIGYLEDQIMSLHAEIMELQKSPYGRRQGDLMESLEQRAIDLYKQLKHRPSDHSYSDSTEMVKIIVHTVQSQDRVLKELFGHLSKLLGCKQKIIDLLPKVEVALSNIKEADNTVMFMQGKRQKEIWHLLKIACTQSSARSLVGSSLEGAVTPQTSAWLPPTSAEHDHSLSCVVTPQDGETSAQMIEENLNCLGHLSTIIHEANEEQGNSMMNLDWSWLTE
The experiment in a line: KinomeScan kinase panel, single concentration 10 µM. The test is classed as binding. The conditions noted are these: IKK-alpha, 10 µM; read-out: score (%).

For test [2], the target named is T3, KinomeScan kinase panel (Homo sapiens, UniProt O75460).
T3 construct: purchased DiscoveRx (KinomeScan)
T3 sequence (O75460 19-977): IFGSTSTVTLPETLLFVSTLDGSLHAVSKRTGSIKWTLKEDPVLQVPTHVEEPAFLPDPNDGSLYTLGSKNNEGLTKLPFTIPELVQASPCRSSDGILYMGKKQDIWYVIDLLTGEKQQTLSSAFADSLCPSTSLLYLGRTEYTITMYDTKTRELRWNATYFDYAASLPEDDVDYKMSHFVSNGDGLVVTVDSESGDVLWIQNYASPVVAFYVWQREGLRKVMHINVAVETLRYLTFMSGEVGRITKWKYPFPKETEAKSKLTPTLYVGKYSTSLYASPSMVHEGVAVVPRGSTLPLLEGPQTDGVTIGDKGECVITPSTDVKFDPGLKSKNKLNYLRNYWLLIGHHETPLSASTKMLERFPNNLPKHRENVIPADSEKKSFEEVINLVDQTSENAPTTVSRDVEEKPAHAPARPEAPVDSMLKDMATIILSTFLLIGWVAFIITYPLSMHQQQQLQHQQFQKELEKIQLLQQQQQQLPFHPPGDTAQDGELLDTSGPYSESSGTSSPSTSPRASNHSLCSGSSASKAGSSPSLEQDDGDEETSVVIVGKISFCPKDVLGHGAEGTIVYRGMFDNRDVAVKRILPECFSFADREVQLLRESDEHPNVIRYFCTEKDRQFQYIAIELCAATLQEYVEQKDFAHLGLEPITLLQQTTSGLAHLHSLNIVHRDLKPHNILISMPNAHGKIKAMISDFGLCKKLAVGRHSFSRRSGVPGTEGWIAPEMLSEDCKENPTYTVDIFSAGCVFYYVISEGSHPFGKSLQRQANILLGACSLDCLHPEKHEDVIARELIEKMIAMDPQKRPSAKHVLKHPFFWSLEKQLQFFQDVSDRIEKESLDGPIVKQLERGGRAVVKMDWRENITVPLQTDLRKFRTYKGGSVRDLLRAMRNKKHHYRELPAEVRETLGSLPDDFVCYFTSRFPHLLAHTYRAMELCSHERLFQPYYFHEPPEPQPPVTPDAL
The description is as above. The test is classed as binding. The note with it: ERN1, 10 µM; read-out: score (%).

Test [3] has as its target T4, KinomeScan kinase panel (Homo sapiens, UniProt O95382).
T4 construct: purchased DiscoveRx (KinomeScan)
The description is as above. The test is classed as binding. The conditions noted are these: ASK2, 10 µM; read-out: score (%).

Test [4] deals with T5, KinomeScan kinase panel (Homo sapiens, UniProt P08581, Y1235D).
T5 construct: purchased DiscoveRx (KinomeScan)
The description is as above. In kind it is binding. The conditions noted are these: MET(Y1235D), 10 µM.

Test [5] concerns the target T6, KinomeScan kinase panel (Homo sapiens, UniProt P20794).
T6 construct: purchased DiscoveRx (KinomeScan)
The description is as above. In kind it is binding. The conditions noted are these: MAK, 10 µM; read-out: score (%).

The target in test [6] is T7, KinomeScan kinase panel (Homo sapiens, UniProt P42336, H1047Y).
T7 construct: purchased DiscoveRx (KinomeScan)
The description is as above. In kind it is binding. The note with it: PIK3CA(H1047Y), 10 µM; read-out: score (%).

Test [7] addresses T8, KinomeScan kinase panel (Homo sapiens, UniProt P42679).
T8 construct: purchased DiscoveRx (KinomeScan)
Described as above. The conditions noted are these: CTK, 10 µM; read-out: score (%). In kind it is binding.

Test [8] has as its target T9, KinomeScan kinase panel (Homo sapiens, UniProt P57058).
T9 construct: purchased DiscoveRx (KinomeScan)
The description is as above. In kind it is binding. The conditions noted are these: HUNK, 10 µM; read-out: score (%).

The target of test [9] is T10, KinomeScan kinase panel (Homo sapiens, UniProt Q13523).
T10 construct: purchased DiscoveRx (KinomeScan)
T10 sequence (Q13523 whole entry): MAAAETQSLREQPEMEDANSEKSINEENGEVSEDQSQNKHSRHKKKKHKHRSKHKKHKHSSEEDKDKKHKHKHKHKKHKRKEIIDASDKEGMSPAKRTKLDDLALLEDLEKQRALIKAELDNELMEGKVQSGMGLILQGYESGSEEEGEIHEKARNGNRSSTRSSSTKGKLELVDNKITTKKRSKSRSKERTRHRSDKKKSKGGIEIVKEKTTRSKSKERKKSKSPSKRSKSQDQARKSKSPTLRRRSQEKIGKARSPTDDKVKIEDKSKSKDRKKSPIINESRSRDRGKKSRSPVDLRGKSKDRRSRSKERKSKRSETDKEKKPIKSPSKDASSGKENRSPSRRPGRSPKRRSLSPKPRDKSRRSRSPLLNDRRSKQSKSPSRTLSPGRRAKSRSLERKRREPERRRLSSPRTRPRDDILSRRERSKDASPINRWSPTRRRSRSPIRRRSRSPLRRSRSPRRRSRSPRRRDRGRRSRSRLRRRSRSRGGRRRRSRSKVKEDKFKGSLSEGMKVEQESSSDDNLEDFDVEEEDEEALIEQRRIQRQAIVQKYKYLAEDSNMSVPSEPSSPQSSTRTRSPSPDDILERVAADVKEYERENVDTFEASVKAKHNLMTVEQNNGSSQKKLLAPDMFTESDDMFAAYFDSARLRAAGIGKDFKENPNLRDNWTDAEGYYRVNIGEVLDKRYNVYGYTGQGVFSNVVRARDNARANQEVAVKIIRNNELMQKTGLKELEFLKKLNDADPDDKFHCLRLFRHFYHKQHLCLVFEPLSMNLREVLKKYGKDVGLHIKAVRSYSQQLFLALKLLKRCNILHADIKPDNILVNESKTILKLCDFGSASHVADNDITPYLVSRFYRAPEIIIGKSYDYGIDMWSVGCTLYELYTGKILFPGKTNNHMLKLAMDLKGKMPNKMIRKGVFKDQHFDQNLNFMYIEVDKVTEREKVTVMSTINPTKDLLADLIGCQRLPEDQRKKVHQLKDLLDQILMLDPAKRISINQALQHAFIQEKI
The description is as above. The note with it: read-out: score (%). The test is classed as binding.

Test [10] has as its target T11, KinomeScan kinase panel (Homo sapiens, UniProt Q52WX2).
T11 construct: purchased DiscoveRx (KinomeScan)
The test is described as above. The test is classed as binding. The conditions noted are these: kinase SBK1; 10 µM; read-out: score (%).

The target in test [11] is T12, KinomeScan kinase panel (Homo sapiens, UniProt Q8NE63).
T12 construct: purchased DiscoveRx (KinomeScan)
The test is described as above. In kind it is binding. The note with it: HIPK4, 10 µM; read-out: score (%).

The target of test [12] is T13, KinomeScan kinase panel (Homo sapiens, UniProt Q9UHD2).
T13 construct: purchased DiscoveRx (KinomeScan)
The test is described as above. In kind it is binding. The note with it: kinase TBK1; 10 µM; read-out: score (%).

Read-outs that look alike come from different tables or passages of the source.

T1 sequence (P35968 20-1356): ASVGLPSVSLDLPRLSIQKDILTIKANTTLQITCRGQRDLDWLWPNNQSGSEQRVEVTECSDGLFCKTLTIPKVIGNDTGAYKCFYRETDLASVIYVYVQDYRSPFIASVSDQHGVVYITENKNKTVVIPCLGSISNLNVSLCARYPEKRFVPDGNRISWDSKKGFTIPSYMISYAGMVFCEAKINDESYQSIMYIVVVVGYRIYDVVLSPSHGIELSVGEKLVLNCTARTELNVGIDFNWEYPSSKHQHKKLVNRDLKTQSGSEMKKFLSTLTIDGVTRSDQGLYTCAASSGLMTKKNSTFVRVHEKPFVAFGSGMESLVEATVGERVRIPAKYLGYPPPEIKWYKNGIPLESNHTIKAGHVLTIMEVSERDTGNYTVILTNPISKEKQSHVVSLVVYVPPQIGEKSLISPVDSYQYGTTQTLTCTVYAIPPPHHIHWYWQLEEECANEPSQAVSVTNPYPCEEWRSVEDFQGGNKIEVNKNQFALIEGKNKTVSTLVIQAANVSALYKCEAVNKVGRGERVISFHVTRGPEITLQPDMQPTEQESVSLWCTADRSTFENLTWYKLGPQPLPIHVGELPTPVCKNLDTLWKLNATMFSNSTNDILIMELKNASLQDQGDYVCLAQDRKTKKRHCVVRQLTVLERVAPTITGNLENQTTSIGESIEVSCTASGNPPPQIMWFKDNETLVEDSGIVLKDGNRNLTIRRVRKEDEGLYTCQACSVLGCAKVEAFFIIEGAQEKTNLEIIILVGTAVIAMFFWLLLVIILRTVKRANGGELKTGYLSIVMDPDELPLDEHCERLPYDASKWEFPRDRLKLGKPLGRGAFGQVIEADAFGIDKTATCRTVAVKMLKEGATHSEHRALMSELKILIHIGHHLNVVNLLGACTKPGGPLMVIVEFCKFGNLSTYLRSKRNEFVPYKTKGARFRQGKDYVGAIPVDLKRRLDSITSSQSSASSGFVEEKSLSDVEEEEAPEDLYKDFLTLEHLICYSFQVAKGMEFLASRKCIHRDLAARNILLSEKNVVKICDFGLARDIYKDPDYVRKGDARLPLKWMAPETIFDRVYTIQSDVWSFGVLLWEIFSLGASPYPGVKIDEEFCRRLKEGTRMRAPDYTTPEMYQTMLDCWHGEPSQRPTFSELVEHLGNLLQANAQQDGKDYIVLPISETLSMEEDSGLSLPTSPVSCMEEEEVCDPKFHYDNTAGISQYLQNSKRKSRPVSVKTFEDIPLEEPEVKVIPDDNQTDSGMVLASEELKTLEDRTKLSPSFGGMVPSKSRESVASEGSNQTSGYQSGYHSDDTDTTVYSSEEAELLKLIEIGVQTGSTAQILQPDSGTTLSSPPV
T11 sequence (Q52WX2 whole entry): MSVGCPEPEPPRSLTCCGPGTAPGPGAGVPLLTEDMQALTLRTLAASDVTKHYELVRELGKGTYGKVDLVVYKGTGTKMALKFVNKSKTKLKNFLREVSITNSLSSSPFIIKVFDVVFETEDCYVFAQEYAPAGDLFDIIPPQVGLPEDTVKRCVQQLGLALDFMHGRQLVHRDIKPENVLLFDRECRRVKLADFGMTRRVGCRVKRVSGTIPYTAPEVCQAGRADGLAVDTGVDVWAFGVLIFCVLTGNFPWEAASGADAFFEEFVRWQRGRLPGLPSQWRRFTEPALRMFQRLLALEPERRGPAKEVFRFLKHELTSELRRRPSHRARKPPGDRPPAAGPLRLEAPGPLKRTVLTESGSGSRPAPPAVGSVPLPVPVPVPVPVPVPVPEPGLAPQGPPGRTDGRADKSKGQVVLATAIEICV
T6 sequence (P20794 whole entry): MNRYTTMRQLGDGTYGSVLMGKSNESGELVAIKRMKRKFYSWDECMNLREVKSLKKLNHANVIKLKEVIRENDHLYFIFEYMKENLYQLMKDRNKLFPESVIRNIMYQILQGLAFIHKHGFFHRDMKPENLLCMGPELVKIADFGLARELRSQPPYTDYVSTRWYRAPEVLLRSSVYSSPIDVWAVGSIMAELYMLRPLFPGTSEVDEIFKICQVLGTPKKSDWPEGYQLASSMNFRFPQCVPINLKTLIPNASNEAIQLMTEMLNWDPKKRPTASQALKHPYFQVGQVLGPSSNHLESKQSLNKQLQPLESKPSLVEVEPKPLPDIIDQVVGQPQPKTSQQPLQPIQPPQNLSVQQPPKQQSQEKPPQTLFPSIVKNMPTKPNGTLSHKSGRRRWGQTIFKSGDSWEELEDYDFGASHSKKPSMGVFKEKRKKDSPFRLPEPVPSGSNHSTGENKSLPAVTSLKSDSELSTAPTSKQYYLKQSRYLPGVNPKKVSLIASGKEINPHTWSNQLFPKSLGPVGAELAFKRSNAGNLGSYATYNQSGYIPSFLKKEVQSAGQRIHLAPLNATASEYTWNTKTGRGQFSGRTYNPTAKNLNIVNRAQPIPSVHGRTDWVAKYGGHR
T9 sequence (P57058 whole entry): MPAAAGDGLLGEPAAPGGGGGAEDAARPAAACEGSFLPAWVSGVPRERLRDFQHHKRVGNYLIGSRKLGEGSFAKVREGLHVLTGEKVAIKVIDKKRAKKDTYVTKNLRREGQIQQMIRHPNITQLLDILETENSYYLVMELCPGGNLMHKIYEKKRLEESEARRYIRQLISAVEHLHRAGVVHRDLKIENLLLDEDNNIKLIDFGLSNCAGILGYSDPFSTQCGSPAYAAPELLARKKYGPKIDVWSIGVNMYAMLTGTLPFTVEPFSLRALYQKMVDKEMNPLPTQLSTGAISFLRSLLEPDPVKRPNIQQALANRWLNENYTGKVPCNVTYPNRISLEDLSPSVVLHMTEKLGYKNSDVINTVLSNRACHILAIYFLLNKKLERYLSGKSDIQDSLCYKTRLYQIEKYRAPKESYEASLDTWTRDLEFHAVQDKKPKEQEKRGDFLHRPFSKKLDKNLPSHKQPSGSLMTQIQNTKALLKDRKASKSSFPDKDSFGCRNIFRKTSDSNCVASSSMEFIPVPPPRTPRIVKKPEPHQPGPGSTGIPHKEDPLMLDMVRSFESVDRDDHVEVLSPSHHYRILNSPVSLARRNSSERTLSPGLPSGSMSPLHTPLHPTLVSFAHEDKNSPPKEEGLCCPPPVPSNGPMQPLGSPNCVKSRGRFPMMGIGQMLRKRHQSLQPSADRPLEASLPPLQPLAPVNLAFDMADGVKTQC

As to `CCN1CCN(Cc2ccc(NC(=O)c3ccc(C)c(NC(=O)c4cncc(-c5cccs5)c4)c3)cc2C(F)(F)F)CC1` [ALW-II-41-27], the results for the IC50 with RAT RET/C634R cells and with TT cells were 44 nM and 5.7 nM, respectively. Besides, the “inhibition of VEGFRII phosphorylation in living TT cells” value (shortened to “inhibition of VEGFRII phosphorylation”) against VEGFRII was “able to inhibit”. For the same compound, the remaining binding at 10 µM is 3.3% on KinomeScan kinase panel [1]; 1.4% on KinomeScan kinase panel [2]; more than 30% on KinomeScan kinase panel [3]; more than 30% on KinomeScan kinase panel [5]; more than 30% at KinomeScan kinase panel [6]; more than 30% at KinomeScan kinase panel [7]. Further, the remaining binding at 10 µM at KinomeScan kinase panel [8] is more than 30%; at KinomeScan kinase panel [9] (PRP4, 10 µM), more than 30%; at KinomeScan kinase panel [10], more than 30%; on KinomeScan kinase panel [11], 25%; on KinomeScan kinase panel [12], more than 30%. The “score (%)” value on KinomeScan kinase panel [4] is listed as “nb (Hits values higher than 30% were considered negative (no binding: nb))”.
For the compound `CCN1CCN(Cc2ccc(NC(=O)c3ccc(C)c(/C=C/c4cnc5[nH]ccc5c4Cl)c3)cc2C(F)(F)F)CC1` [HG-6-63-01, (E)-3-(2-(4-chloro-1H-pyrrolo[2,3-b]pyridin-5-yl)vinyl)-N-(4-((4-ethylpiperazin-1-yl)methyl)-3-(trifluoromethyl)phenyl)-4-methylbenzamide], the IC50 in the test with RAT RET/C634R cells is 21 nM; in the test on TT cells, 2.3 nM. Also, the “inhibition of VEGFRII phosphorylation” value against VEGFRII was “able to inhibit”. For the same compound, at KinomeScan kinase panel [1], the remaining binding at 10 µM came out at 0.75%.
As to `CCN1CCN(Cc2ccc(NC(=O)c3ccc(C)c(C#Cc4cccnc4)c3)cc2C(F)(F)F)CC1` [XMD15-44], the results for the IC50 in the test on RAT RET/C634R cells and with TT cells were 11.5 nM and 1.5 nM, respectively. The “inhibition of VEGFRII phosphorylation” value at VEGFRII was “able to inhibit”. Also, the remaining binding at 10 µM is 0% at KinomeScan kinase panel [1]; more than 30% at KinomeScan kinase panel [2]; 12% at KinomeScan kinase panel [3]; 9% on KinomeScan kinase panel [5]; 81% on KinomeScan kinase panel [6]; more than 30% at KinomeScan kinase panel [7]. In addition, the remaining binding at 10 µM on KinomeScan kinase panel [8] is more than 30%; at KinomeScan kinase panel [9] (kinase PRP4, 10 µM), 54%; at KinomeScan kinase panel [10], 88%; on KinomeScan kinase panel [11] it was 2.2%; on KinomeScan kinase panel [12], 100%. Also, the “score (%)” value at KinomeScan kinase panel [4] is given as “nb (Hits values higher than 30% were considered negative (no binding: nb))”.

For the origin of these results see PMC4457528, “Identification of Novel Small Molecule Inhibitors of Oncogenic RET Kinase” (PLoS ONE, 2015).
